Test results taken from patent US20220041957A1, “GLUCAMIDE-BASED SURFACTANTS” (Clariant International Ltd., priority 2018, published 2022).

How the values were obtained:
Foam (collapse) test = format: physicochemical; settings: 20 mL of 1 wt. % solution, 20 shakes; for Foam Height, 2 min: after 2 min; for Foam Height, 3 min: after 3 min; for Foam Height, 5 min: after 5 min; for Foam Height, Initial: directly after shaking
Description: 20 mL of 1 wt. % solution of each substance were placed into a graduated 100 mL measurement cylinder, which was sealed with a stopper. Foam was generated by 20 shakes. The foam height was determined as mL foam above the aqueous layer directly after shaking, after 2, 3 and 5 min.

[1] = Wetting test on cotton swatches; format: physicochemical; settings: 0.1 wt. % surfactant solution in water; for Wetting Performance: rating in words; for Wetting time: time until swatch sinks to bottom
Description: Cotton swatches (ISO 8022, obtained from wfk-Testgewebe GmbH) were placed in 600 mL beaker, filled with the corresponding 0.1 wt. % surfactant solution in water. The time between placing the swatches into the solution and sinking to the bottom was measured.

Row | Foam Height, 2 min (Foam (collapse) test) | Foam Height, 3 min (Foam (collapse) test) | Foam Height, 5 min (Foam (collapse) test) | Foam Height, Initial (Foam (collapse) test) | Wetting Performance [1] | Wetting time [1] | SMILES
1 | 60 mL | 33 mL | 19 mL | 80 mL | good | 60 s | CCCCCCCCCCCC(O)CC(=O)N(C)C[C@H](O)[C@@H](O)[C@H](O)[C@H](O)CO (stereo partly drawn) [Example 2]
2 | 67 mL | 50 mL | 33 mL | 89 mL | poor | >300 s | CN(C[C@H](O)[C@@H](O)[C@H](O)[C@H](O)CO)C(=O)CCCCCCCCCCCCCCCO [Example 4]
